Test results taken from article PMC9069370, “Integrated Design of a Membrane‐Lytic Peptide‐Based Intravenous Nanotherapeutic Suppresses Triple‐Negative Breast Cancer” (Advanced Science, 2022).
Peptide text beside a SMILES is read from it.

Assays:
[1] = tested on: U2OS; type: cell-based, human; conditions: 72 h
[2] = tested on: HEK293T; test: cells; type: cell-based, human; conditions: 72 h
[3] = Tryptophan fluorescent binding assay; conditions: tryptophan fluorescence; 50 µM peptide, lipid titrated 0-5000 µM; phosphate buffered saline 1X, pH 7.4; values as lipid per peptide
In short: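 Peptides at 50 µM were incubated for 1 h with increasing amounts of 3:1 POPC:POPG unilamellar vesicles in 1X phosphate buffered saline, pH 7.4. Tryptophan emission (300–450 nm, excitation 280 nm) was recorded on a Cytation 5 multi-mode reader. The lipid concentration giving 50 % peptide binding was determined and reported as a lipid-to-peptide ratio.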

[4] = tested on: HMLER‐shEcad; test: cells; type: cell-based, human; conditions: 72 h
Text: (§1) […], and MCF-10A cells were maintained in MEGM with supplements and growth factors bovine pituitary extract, hydrocortisone, human epidermal growth factor, insulin, and gentamicin/amphotericin-B.

[5] = tested on: MCF‐10A; test: cells; type: cell-based, human; conditions: 72 h
Text: as §1

[6] = tested on: HMLER; test: cells; type: cell-based, human; conditions: 72 h
Text: as §1

[7] = ANTS/DPX liposome leakage assay; conditions: for Peptide Concentration-induced 50 % ANTS/DPX leakage at pH 4.8 (L/P), 3POPC/1POPG Vesicle / Peptide Concentration-induced 50 % ANTS/DPX leakage at pH 4.8 (L/P), POPC Vesicle / Peptide Concentration-induced 50 % ANTS/DPX leakage at pH 7.4 (L/P), 3POPC/1POPG Vesicle / Peptide Concentration-induced 50 % ANTS/DPX leakage at pH 7.4 (L/P), POPC Vesicle: 0.5 mM vesicles, peptide 0-20 µM, 3 h incubation, lipid per peptide; for Peptide Concentration-induced 50 % ANTS/DPX leakage at pH 4.8 (L/P), 3POPC/1POPG Vesicle / Peptide Concentration-induced 50 % ANTS/DPX leakage at pH 4.8 (L/P), POPC Vesicle: HCl-adjusted PBS 1X pH 4.8; for Peptide Concentration-induced 50 % ANTS/DPX leakage at pH 7.4 (L/P), 3POPC/1POPG Vesicle / Peptide Concentration-induced 50 % ANTS/DPX leakage at pH 7.4 (L/P), POPC Vesicle: PBS 1X pH 7.4, high ratio = more potent
In short: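 The value is the lipid-to-peptide ratio giving 50% ANTS/DPX release, with fluorescence (350/510 nm) read after 3 h and scaled to 10% Triton as full leakage. Peptides were titrated into 0.5 mM LUVs of POPC or 3POPC/1POPG (0.1 µm, free dye removed by gel filtration) in PBS at pH 7.4 or 4.8.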

IC50 [1]	Lipid Concentration-induced 50% Peptide Binding (L/P), 3POPC/1POPG Vesicle [3]	Lipid Concentration-induced 50% Peptide Binding (L/P), POPC Vesicle [3]	IC50 [4]	IC50 [5]	IC50 [6]	SMILES	IC50 [2]	Peptide Concentration-induced 50 % ANTS/DPX leakage at pH 4.8 (L/P), 3POPC/1POPG Vesicle [7]	Peptide Concentration-induced 50 % ANTS/DPX leakage at pH 4.8 (L/P), POPC Vesicle [7]	Peptide Concentration-induced 50 % ANTS/DPX leakage at pH 7.4 (L/P), 3POPC/1POPG Vesicle [7]	Peptide Concentration-induced 50 % ANTS/DPX leakage at pH 7.4 (L/P), POPC Vesicle [7]	change of ANTS/DPX dye leakage / liposome selectivity at pH 4.8 ([7]; pH = 4.8 compared with physiological pH, anionic versus neutral liposomes)
61 ± 1.41 µM	0.38 L/P	0.63 L/P	6.05 ± 2.76 µM	8.4 ± 1.56 µM	5.55 ± 0.35 µM	CC(C)C[C@H](NC(=O)CN)C(=O)N[C@@H](CC(C)C)C(=O)N[C@@H](CC(=O)O)C(=O)N[C@@H](CC(C)C)C(=O)N[C@@H](CC(C)C)C(=O)N[C@@H](CCC(=O)O)C(=O)N[C@@H](CC(C)C)C(=O)N[C@@H](CC(C)C)C(=O)N[C@@H](CC(C)C)C(=O)N[C@@H](CCC(=O)O)C(=O)N[C@@H](C)C(=O)N[C@@H](C)C(=O)NCC(=O)N[C@@H](Cc1c[nH]c2ccccc12)C(N)=O [DEE] (H-GLLDLLELLLEAAGW-NH2)	9.91 ± 0.44 µM	164 L/P	110 L/P	597 L/P	644 L/P	–
143 ± 80.3 µM	0.46 L/P	0.44 L/P	3.45 ± 2.19 µM	29.8 ± 7.35 µM	2.35 ± 1.06 µM	CC(C)C[C@H](NC(=O)CN)C(=O)N[C@@H](CC(C)C)C(=O)N[C@@H](Cc1c[nH]cn1)C(=O)N[C@@H](CC(C)C)C(=O)N[C@@H](CC(C)C)C(=O)N[C@@H](CCC(=O)O)C(=O)N[C@@H](CC(C)C)C(=O)N[C@@H](CC(C)C)C(=O)N[C@@H](CC(C)C)C(=O)N[C@@H](CCCCN)C(=O)N[C@@H](C)C(=O)N[C@@H](C)C(=O)NCC(=O)N[C@@H](Cc1c[nH]c2ccccc12)C(N)=O [HEK] (H-GLLHLLELLLKAAGW-NH2)	6.95 ± 1.63 µM	411 L/P	97 L/P	386 L/P	755 L/P	–
25 µM	0.42 L/P	0.56 L/P	0.71 ± 0.13 µM	3.6 ± 0.99 µM	1.35 ± 0.35 µM	CC(C)C[C@H](NC(=O)CN)C(=O)N[C@@H](CC(C)C)C(=O)N[C@@H](CCC(=O)O)C(=O)N[C@@H](CC(C)C)C(=O)N[C@@H](CC(C)C)C(=O)N[C@@H](Cc1c[nH]cn1)C(=O)N[C@@H](CC(C)C)C(=O)N[C@@H](CC(C)C)C(=O)N[C@@H](CC(C)C)C(=O)N[C@@H](CCCCN)C(=O)N[C@@H](C)C(=O)N[C@@H](C)C(=O)NCC(=O)N[C@@H](Cc1c[nH]c2ccccc12)C(N)=O [EHK] (H-GLLELLHLLLKAAGW-NH2)	5.35 ± 0.07 µM	117 L/P	55 L/P	505 L/P	981 L/P	–
55.9 ± 18.9 µM	0.28 L/P	0.67 L/P	11.9 ± 0.14 µM	> 200 µM	21.4 ± 2.47 µM	CC(C)C[C@H](NC(=O)CN)C(=O)N[C@@H](CC(C)C)C(=O)N[C@@H](CC(=O)O)C(=O)N[C@@H](CC(C)C)C(=O)N[C@@H](CC(C)C)C(=O)N[C@@H](Cc1c[nH]cn1)C(=O)N[C@@H](CC(C)C)C(=O)N[C@@H](CC(C)C)C(=O)N[C@@H](CC(C)C)C(=O)N[C@@H](Cc1c[nH]cn1)C(=O)N[C@@H](C)C(=O)N[C@@H](C)C(=O)NCC(=O)N[C@@H](Cc1c[nH]c2ccccc12)C(N)=O [DHH] (H-GLLDLLHLLLHAAGW-NH2)	6.4 ± 0.42 µM	98 L/P	106 L/P	692 L/P	684 L/P	–
16 ± 0.78 µM	0.25 L/P	0.75 L/P	1.9 ± 0.42 µM	7.6 ± 0.42 µM	2.7 ± 0.28 µM	CC(C)C[C@H](NC(=O)CN)C(=O)N[C@@H](CC(C)C)C(=O)N[C@@H](Cc1c[nH]cn1)C(=O)N[C@@H](CC(C)C)C(=O)N[C@@H](CC(C)C)C(=O)N[C@@H](CCCCN)C(=O)N[C@@H](CC(C)C)C(=O)N[C@@H](CC(C)C)C(=O)N[C@@H](CC(C)C)C(=O)N[C@@H](CCC(=O)O)C(=O)N[C@@H](C)C(=O)N[C@@H](C)C(=O)NCC(=O)N[C@@H](Cc1c[nH]c2ccccc12)C(N)=O [HKE] (H-GLLHLLKLLLEAAGW-NH2)	5.15 ± 0.64 µM	94 L/P	173 L/P	365 L/P	692 L/P	–
53 ± 2.83 µM	0.71 L/P	0.88 L/P	2.92 ± 0.17 µM	20.9 ± 5.87 µM	3.7 ± 0.14 µM	CC(C)C[C@H](NC(=O)CN)C(=O)N[C@@H](CC(C)C)C(=O)N[C@@H](CCCCN)C(=O)N[C@@H](CC(C)C)C(=O)N[C@@H](CC(C)C)C(=O)N[C@@H](Cc1c[nH]cn1)C(=O)N[C@@H](CC(C)C)C(=O)N[C@@H](CC(C)C)C(=O)N[C@@H](CC(C)C)C(=O)N[C@@H](CCC(=O)O)C(=O)N[C@@H](C)C(=O)N[C@@H](C)C(=O)NCC(=O)N[C@@H](Cc1c[nH]c2ccccc12)C(N)=O [KHE] (H-GLLKLLHLLLEAAGW-NH2)	26 ± 2.83 µM	156 L/P	183 L/P	188 L/P	981 L/P	–
12.7 ± 1.91 µM	0.20 L/P	0.68 L/P	1.75 ± 0.21 µM	5.6 ± 0.14 µM	3.15 ± 0.07 µM	CC(C)C[C@H](NC(=O)CN)C(=O)N[C@@H](CC(C)C)C(=O)N[C@@H](Cc1c[nH]cn1)C(=O)N[C@@H](CC(C)C)C(=O)N[C@@H](CC(C)C)C(=O)N[C@@H](Cc1c[nH]cn1)C(=O)N[C@@H](CC(C)C)C(=O)N[C@@H](CC(C)C)C(=O)N[C@@H](CC(C)C)C(=O)N[C@@H](CCCCN)C(=O)N[C@@H](C)C(=O)N[C@@H](C)C(=O)NCC(=O)N[C@@H](Cc1c[nH]c2ccccc12)C(N)=O [HHK] (H-GLLHLLHLLLKAAGW-NH2)	5.25 ± 1.48 µM	111 L/P	149 L/P	160 L/P	1133 L/P	–
8 ± 0.71 µM	1.63 L/P	2.75 L/P	1.3 ± 0.14 µM	8.8 µM	1.8 ± 0.28 µM	CC(C)C[C@H](NC(=O)CN)C(=O)N[C@@H](CC(C)C)C(=O)N[C@@H](CCC(=O)O)C(=O)N[C@@H](CC(C)C)C(=O)N[C@@H](CC(C)C)C(=O)N[C@@H](CCCCN)C(=O)N[C@@H](CC(C)C)C(=O)N[C@@H](CC(C)C)C(=O)N[C@@H](CC(C)C)C(=O)N[C@@H](CCC(=O)O)C(=O)N[C@@H](C)C(=O)N[C@@H](C)C(=O)NCC(=O)N[C@@H](Cc1c[nH]c2ccccc12)C(N)=O [EKE] (H-GLLELLKLLLEAAGW-NH2)	5.15 ± 0.21 µM	438 L/P	75 L/P	657 L/P	738 L/P	–
106 ± 14 µM	3.50 L/P	0.88 L/P	11 ± 1.06 µM	> 200 µM	28.6 ± 10.8 µM	CC(C)C[C@H](NC(=O)CN)C(=O)N[C@@H](CC(C)C)C(=O)N[C@@H](Cc1c[nH]cn1)C(=O)N[C@@H](CC(C)C)C(=O)N[C@@H](CC(C)C)C(=O)N[C@@H](CCC(=O)O)C(=O)N[C@@H](CC(C)C)C(=O)N[C@@H](CC(C)C)C(=O)N[C@@H](CC(C)C)C(=O)N[C@@H](Cc1c[nH]cn1)C(=O)N[C@@H](C)C(=O)N[C@@H](C)C(=O)NCC(=O)N[C@@H](Cc1c[nH]c2ccccc12)C(N)=O [HEH] (H-GLLHLLELLLHAAGW-NH2)	8.8 ± 1.7 µM	24 L/P	173 L/P	505 L/P	995 L/P	increased selectivity for neutral bilayers
